Values of other authors, collected in US20090226898A1, “Mitochondrial markers of ischemia” (Inverness Medical Switzerland GMBH, priority 2005, published 2009).

What was measured:
[1] = tested on: human monocytes and formyl peptide receptor-like 1 (FPRL1)-transfected human embryonic kidney 293 cells; settings: human monocytes and FPRL1-transfected HEK 293 cells
[2] = tested on: human monocytes and formyl peptide receptor-like 1 (FPRL1)-transfected human embryonic kidney 293 cells; settings: human monocytes and FPRL1-transfected HEK 293 cells; remark: listed apart in the source
cardiac myocytes = settings: immediately before ischemia
FPR-like 2 (FPRL2) = molecular target: T1, FPR-like 2 (FPRL2) (Homo sapiens, UniProt P25089)
T1 sequence (P25089 1-353): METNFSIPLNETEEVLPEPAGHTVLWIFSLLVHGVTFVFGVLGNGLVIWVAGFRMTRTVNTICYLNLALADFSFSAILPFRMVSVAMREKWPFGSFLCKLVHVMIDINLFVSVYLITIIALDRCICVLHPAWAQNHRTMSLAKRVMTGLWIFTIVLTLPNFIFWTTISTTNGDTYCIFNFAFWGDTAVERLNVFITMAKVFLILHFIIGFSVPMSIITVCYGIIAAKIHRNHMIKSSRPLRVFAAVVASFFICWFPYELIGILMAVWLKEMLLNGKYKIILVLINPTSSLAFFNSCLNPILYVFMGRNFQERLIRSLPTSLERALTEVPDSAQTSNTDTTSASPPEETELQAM

[3] = molecular target: T2, FMLP receptor (68-kDa protein) (Homo sapiens, UniProt P21462); settings: binding to the 68-kDa protein
T2 sequence (P21462 1-350): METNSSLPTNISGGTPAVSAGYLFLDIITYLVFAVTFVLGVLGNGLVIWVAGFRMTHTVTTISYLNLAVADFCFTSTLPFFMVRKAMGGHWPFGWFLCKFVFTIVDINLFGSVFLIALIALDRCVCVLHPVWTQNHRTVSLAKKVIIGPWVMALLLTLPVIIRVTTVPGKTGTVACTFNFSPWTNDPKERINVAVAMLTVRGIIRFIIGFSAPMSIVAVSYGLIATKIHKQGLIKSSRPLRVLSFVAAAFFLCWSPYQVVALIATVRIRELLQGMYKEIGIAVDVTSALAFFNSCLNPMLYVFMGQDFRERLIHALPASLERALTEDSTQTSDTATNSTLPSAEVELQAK

Q: For “LL-37: neutrophil granule- and epithelial cell-derived cathelicidin, from hCAP18 (aa1-37) (LLGDFFRKSKEKIGKEFKRIVQRIKDFLRNLVPRTES; Antibacterial peptide LL-37; UniProt P49913 134-170, looked up)”, which chemotaxis [1] is on record?
A: The chemotaxis was “chemotactic”.

Q: And the calcium mobilization [2]?
A: The calcium mobilization was “can induce calcium mobilization”.

Q: What does the source list for C=C(C)[C@H]1Cc2c(ccc3c2O[C@@H]2COc4cc(OC)c(OC)cc4[C@@H]2C3=O)O1 [rotenone]?
A: damage to mitochondria (cardiac myocytes): reduces damage to mitochondria; production of ROS (cardiac myocytes; cardiac myocytes): decreases the production of ROS

Q: For formyl-Met-Leu-Phe [fMLP], which receptor activation (FPR-like 2 (FPRL2)) is on record?
A: Its receptor activation is “only activated by high (micromolar) concentrations”.

Q: For RKAMGGHWPFGWFLCKF, which “inhibition of ligand binding” value [3] is on record?
A: Its value is “strongest inhibitor of ligand binding”.
